Laboratory results from ChEMBL document CHEMBL1949541, “Discovery of 7-arylsulfonyl-1,2,3,4, 4a,9a-hexahydro-benzo[4,5]furo[2,3-c]pyridines: identification of a potent and selective 5-HT₆ receptor antagonist showing activity in rat social recognition test” (Bioorg Med Chem Lett, 2012).
pIC50, pKi: −log10 of the molar value. One block for each molecule: values may come before it.

Assays:
[1] = target: T1, 5-hydroxytryptamine receptor 6 (Homo sapiens, UniProt P50406); test: Displacement of [3H]LSD from human recombinant 5HT6 receptor
[2] = target: 5-hydroxytryptamine receptor 6 (Rattus norvegicus, UniProt P31388); test: Displacement of [3H]LSD from rat recombinant 5HT6 receptor
[3] = target: T1, 5-hydroxytryptamine receptor 6; test: Antagonist activity at human 5HT6 receptor expressed in human astrocytoma cells assessed as inhibition of cAMP production; assay type: functional, cell-based
Rattus norvegicus [4] = test: (§1) Oral bioavailability in rat; assay type: ADME, organism-based; conditions: in vivo
Rattus norvegicus [5] = test: AUC in po dosed rat; assay type: ADME, organism-based, Plasma; conditions: in vivo
[6] = as §1; assay type: ADME, organism-based; conditions: in vivo
[7] = Half life in mouse liver microsomes; assay type: ADME, Microsome
[8] = Half life in rat liver microsomes; assay type: ADME, Microsome
[9] = Half life in dog liver microsomes; assay type: ADME, Canis lupus familiaris, Microsome
[10] = Half life in human liver microsomes; assay type: ADME, Microsome
[11] = target: 5-hydroxytryptamine receptor 1A (Homo sapiens) (UniProt P08908); test: Inhibition of human 5HT1A at 10 uM
[12] = target: 5-hydroxytryptamine receptor 1B (Rattus norvegicus) (UniProt P28564); test: Inhibition of rat […] at 10 uM
[13] = target: 5-hydroxytryptamine receptor 2A (Homo sapiens, UniProt P28223); test: Inhibition of human 5HT2A at 10 uM
[14] = target: 5-hydroxytryptamine receptor 2B (Homo sapiens, UniProt P41595); test: Inhibition of human 5HT2B at 10 uM
[15] = target: 5-hydroxytryptamine receptor 2C (Homo sapiens) (UniProt P28335); test: Inhibition of human 5HT2C at 10 uM
[16] = target: 5-hydroxytryptamine receptor 3A (Homo sapiens) (UniProt P46098); test: Inhibition of human 5HT3 at 10 uM
[17] = target: 5-hydroxytryptamine receptor 5A (Homo sapiens) (UniProt P47898); test: Inhibition of human 5HT5A at 10 uM
[18] = target: 5-hydroxytryptamine receptor 7 (Homo sapiens) (UniProt P34969); test: Inhibition of human 5HT7 at 10 uM
Rattus norvegicus [19] = test: Antiamnesic activity in ip dosed rat assessed as decrease in ratio of investigation duration of familiar juvenile rat administered 120 mins prior to test by social recognition test; assay type: functional, organism-based
[20] = target: Muscarinic acetylcholine receptor M1 (Homo sapiens) (UniProt P11229); conditions: 10 uM
[21] = target: Muscarinic acetylcholine receptor M2 (Homo sapiens) (UniProt P08172); conditions: 10 uM
Description: Inhibition of M2 receptor at 10 uM

[22] = target: Muscarinic acetylcholine receptor M4 (Homo sapiens) (UniProt P08173); conditions: 10 uM
Description: Inhibition of M4 receptor at 10 uM

[23] = target: Sodium-dependent dopamine transporter (Homo sapiens, UniProt Q01959); conditions: 10 uM
[24] = target: Sodium-dependent noradrenaline transporter (Homo sapiens, UniProt P23975); conditions: 10 uM
Sodium-dependent noradrenaline transporter, sequence (P23975 whole entry): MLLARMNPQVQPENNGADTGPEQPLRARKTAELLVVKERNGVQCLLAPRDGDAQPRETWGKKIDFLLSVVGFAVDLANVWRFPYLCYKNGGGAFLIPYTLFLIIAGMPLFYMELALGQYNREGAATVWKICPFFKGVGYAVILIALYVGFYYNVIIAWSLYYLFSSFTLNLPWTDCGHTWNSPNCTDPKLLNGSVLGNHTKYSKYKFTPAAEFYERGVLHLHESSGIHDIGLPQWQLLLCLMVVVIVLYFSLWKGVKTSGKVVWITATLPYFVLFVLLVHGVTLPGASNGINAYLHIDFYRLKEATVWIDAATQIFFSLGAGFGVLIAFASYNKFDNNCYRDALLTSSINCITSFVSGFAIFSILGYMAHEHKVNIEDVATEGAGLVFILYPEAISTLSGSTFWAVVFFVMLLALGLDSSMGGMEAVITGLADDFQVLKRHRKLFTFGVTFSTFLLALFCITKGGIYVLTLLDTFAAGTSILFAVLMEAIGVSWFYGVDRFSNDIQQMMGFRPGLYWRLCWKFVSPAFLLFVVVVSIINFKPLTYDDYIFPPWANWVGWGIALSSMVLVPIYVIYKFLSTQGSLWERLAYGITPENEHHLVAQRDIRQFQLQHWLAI

5-hydroxytryptamine receptor 6 (Rattus norvegicus, UniProt P31388), sequence (P31388 whole entry): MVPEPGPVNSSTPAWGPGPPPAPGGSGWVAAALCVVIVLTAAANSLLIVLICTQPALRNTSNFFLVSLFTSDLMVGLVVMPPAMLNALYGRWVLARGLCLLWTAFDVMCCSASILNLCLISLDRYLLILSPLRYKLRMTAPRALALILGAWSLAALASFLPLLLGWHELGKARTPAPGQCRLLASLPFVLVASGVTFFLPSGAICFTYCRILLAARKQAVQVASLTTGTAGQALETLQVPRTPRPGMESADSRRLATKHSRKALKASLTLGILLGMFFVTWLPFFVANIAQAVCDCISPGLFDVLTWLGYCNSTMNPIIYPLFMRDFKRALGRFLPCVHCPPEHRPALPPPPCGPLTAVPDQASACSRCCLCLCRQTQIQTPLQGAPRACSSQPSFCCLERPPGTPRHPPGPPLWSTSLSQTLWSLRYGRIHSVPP
T1 sequence (P50406 whole entry): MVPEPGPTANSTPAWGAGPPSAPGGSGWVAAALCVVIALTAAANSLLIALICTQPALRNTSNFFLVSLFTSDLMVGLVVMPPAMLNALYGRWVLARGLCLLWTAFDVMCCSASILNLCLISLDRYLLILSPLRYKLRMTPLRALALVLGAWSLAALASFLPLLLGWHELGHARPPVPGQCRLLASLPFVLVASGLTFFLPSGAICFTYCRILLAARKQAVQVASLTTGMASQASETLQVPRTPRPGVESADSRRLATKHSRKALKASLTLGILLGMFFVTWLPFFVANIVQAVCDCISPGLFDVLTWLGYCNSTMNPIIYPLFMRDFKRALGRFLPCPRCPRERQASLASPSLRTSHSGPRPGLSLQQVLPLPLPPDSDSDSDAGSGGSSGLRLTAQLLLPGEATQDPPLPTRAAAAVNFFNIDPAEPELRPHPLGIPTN
Muscarinic acetylcholine receptor M4 (Homo sapiens), sequence (P08173 whole entry): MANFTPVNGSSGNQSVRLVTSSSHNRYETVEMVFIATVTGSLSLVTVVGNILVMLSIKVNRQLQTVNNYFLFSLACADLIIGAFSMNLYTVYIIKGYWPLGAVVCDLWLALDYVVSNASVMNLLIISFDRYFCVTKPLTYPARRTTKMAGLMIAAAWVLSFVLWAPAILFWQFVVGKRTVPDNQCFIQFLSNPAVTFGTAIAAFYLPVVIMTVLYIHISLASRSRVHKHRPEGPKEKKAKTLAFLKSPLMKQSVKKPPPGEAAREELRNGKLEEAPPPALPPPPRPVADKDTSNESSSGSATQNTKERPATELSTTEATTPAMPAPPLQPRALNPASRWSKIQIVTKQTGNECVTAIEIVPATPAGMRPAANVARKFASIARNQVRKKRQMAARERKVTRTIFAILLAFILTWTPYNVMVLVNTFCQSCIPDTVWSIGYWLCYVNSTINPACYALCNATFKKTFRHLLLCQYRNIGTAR
5-hydroxytryptamine receptor 3A (Homo sapiens), sequence (P46098 whole entry): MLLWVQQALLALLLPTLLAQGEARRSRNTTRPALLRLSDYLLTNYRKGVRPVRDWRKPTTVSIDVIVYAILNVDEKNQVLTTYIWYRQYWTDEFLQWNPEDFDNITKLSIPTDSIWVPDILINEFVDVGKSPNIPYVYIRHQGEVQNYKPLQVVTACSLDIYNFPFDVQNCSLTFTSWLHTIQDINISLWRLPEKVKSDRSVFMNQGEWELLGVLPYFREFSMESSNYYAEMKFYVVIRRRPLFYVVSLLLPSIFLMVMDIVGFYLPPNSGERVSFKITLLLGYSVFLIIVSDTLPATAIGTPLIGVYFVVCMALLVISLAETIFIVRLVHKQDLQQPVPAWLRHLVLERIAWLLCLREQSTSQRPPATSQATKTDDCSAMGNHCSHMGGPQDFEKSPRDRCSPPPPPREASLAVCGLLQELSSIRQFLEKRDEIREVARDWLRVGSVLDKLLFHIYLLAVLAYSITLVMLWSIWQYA
Muscarinic acetylcholine receptor M1 (Homo sapiens), sequence (P11229 whole entry): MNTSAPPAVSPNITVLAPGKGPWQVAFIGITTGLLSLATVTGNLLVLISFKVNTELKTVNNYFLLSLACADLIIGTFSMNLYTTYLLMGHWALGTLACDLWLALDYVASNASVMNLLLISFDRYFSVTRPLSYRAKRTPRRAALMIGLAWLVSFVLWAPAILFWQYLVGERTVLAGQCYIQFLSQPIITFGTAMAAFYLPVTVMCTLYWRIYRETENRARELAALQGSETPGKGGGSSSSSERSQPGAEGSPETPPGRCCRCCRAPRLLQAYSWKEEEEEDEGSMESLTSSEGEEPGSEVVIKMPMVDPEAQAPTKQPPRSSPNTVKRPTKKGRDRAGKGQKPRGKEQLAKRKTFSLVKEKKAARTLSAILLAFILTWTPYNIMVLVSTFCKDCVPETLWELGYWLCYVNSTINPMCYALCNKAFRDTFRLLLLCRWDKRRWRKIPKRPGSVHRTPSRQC
5-hydroxytryptamine receptor 7 (Homo sapiens), sequence (P34969 whole entry): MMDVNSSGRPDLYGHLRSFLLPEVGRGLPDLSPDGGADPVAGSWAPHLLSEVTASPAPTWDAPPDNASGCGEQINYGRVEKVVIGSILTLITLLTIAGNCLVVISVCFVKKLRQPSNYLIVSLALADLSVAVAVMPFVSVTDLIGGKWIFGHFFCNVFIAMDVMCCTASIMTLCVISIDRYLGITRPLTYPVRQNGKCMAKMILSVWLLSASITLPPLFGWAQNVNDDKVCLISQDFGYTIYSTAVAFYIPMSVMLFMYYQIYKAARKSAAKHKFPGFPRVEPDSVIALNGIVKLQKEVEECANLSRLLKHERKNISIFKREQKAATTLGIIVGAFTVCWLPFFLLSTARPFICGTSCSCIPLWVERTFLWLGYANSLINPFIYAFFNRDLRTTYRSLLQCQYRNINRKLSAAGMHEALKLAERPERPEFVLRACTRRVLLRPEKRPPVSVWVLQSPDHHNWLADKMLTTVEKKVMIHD
Muscarinic acetylcholine receptor M2 (Homo sapiens), sequence (P08172 whole entry): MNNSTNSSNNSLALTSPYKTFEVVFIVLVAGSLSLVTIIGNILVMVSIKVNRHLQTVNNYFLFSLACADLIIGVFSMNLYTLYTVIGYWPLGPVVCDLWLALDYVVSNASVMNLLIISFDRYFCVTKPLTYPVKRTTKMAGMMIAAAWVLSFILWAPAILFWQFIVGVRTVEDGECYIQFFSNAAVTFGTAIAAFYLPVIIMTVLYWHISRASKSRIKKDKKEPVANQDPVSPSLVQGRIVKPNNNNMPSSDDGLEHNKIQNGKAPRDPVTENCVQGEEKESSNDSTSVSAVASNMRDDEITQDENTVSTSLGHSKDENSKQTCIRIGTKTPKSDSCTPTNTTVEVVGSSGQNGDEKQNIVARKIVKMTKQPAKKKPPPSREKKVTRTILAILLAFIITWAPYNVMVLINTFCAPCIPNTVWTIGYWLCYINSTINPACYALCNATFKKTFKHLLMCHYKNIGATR
5-hydroxytryptamine receptor 5A (Homo sapiens), sequence (P47898 whole entry): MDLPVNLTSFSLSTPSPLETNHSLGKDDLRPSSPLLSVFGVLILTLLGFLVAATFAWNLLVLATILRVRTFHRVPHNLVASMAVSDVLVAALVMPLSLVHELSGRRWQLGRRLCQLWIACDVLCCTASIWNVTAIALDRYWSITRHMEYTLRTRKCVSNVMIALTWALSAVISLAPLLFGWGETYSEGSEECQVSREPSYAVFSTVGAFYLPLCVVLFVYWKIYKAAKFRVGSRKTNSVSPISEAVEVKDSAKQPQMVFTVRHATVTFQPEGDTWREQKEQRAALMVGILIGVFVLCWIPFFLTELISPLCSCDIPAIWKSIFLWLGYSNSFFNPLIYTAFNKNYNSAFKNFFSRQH
5-hydroxytryptamine receptor 2C (Homo sapiens), sequence (P28335 whole entry): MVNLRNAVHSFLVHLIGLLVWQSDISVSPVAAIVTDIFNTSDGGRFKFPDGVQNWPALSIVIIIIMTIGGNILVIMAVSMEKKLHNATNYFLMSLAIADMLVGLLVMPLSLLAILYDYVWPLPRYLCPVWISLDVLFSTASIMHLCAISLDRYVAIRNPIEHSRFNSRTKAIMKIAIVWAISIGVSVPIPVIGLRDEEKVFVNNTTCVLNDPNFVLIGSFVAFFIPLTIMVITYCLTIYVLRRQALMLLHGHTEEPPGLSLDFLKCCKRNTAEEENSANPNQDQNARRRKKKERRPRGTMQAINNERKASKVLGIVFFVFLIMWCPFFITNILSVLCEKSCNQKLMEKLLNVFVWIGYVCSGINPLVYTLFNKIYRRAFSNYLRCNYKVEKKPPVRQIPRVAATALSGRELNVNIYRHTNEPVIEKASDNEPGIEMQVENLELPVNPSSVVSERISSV

SMILES: Cl.O=S(=O)(c1ccccc1)c1ccc2c3c(oc2c1)CNCC3
pKi [1]: 8.54
bioavailability [6]: 7%
half-life [7]: < 5 min
half-life [8]: < 5 min
half-life [9]: 10 min
half-life [10]: > 40 min

SMILES: CC(C)Oc1cccc(S(=O)(=O)c2ccc3c(c2)O[C@H]2CNCC[C@@H]32)c1.Cl (single isomer, unassigned; enantiomer 1)
pKi [1]: 7.77
F (Rattus norvegicus [4]): 9%
AUC (Rattus norvegicus [5]): 637 ng·h/mL

SMILES: CC(C)Oc1cc(F)cc(S(=O)(=O)c2ccc3c(c2)O[C@H]2CNCC[C@@H]32)c1 (single isomer, unassigned; enantiomer 2)
pKi [1]: 7.19

SMILES: CC(C)Oc1cccc(S(=O)(=O)c2ccc3c(c2)O[C@H]2CNCC[C@@H]32)c1.Cl (single isomer, unassigned; enantiomer 2)
pKi [1]: 7.51
F (Rattus norvegicus [4]): 26%
AUC (Rattus norvegicus [5]): 310 ng·h/mL

SMILES: CC(C)Oc1cccc(S(=O)(=O)c2ccc3c(c2)O[C@H]2CNCC[C@@H]32)c1F (single isomer, unassigned; enantiomer 1)
pKi [1]: 7.25

SMILES: COCCOc1cccc(S(=O)(=O)c2ccc3c(c2)O[C@H]2CNCC[C@@H]32)c1 (racemic)
pKi [1]: 6.25

SMILES: COCCCOc1cccc(S(=O)(=O)c2ccc3c(c2)O[C@H]2CNCC[C@@H]32)c1 (racemic)
pKi [1]: 6.69

SMILES: COc1cc(OC(C)C)cc(S(=O)(=O)c2ccc3c(c2)O[C@H]2CNCC[C@@H]32)c1 (single isomer, unassigned; enantiomer 1)
inhibition [11]: 19%
inhibition [12]: 16%
inhibition [13]: 83%
inhibition [14]: 62%
inhibition [15]: 71%
inhibition [16]: 25%
inhibition [17]: 6%
inhibition [18]: 6%
Activity (Rattus norvegicus [19]): Dose-dependent effect
inhibition [20]: > 50%
inhibition [21]: > 50%
inhibition [22]: > 50%
inhibition [23]: > 50%
inhibition [24]: > 50%

SMILES: CC(C)Oc1cc(F)cc(S(=O)(=O)c2ccc3c(c2)O[C@H]2CNCC[C@@H]32)c1 (single isomer, unassigned; enantiomer 1)
pKi [1]: 7.31

Results, then the molecule that gave them:

pKi [1]: 7.42
pKi [2]: 6.69
pIC50 [3]: 6.88
SMILES: O=S(=O)(c1ccc2c(c1)O[C@H]1CNCC[C@@H]21)c1ccccc1Cl (racemic)

pKi [1]: 8.30
pIC50 [3]: 7.40
SMILES: O=S(=O)(c1ccc2c(c1)O[C@H]1CNCC[C@@H]21)c1cccc(Cl)c1Cl (single isomer, unassigned; enantiomer 1)

pKi [1]: 7.07
F (Rattus norvegicus [4]): 2%
AUC (Rattus norvegicus [5]): 434 ng·h/mL
SMILES: Cl.O=S(=O)(c1cccc(F)c1)c1ccc2c(c1)O[C@H]1CNCC[C@@H]21 (single isomer, unassigned; enantiomer 2)

pKi [1]: 7.96
bioavailability [6]: < 1%
AUC (Rattus norvegicus [5]): 0 ng·h/mL
SMILES: Cl.O=S(=O)(c1cccc(F)c1)c1ccc2c(c1)O[C@H]1CNCC[C@@H]21 (single isomer, unassigned; enantiomer 1)

pKi [1]: 7.19
pKi [2]: 6.63
pIC50 [3]: 6.61
SMILES: Cc1ccc(S(=O)(=O)c2ccc3c(c2)O[C@H]2CNCC[C@@H]32)cc1 (racemic)

pKi [1]: 6.41
SMILES: O=S(=O)(c1ccc(F)cc1)c1ccc2c(c1)O[C@H]1CNCC[C@@H]21 (racemic)

pKi [1]: 7.96
pKi [2]: 7.40
pIC50 [3]: 7.57
SMILES: O=S(=O)(c1cccc(Cl)c1)c1ccc2c(c1)O[C@H]1CNCC[C@@H]21 (racemic)
